How the values were obtained:
[1] = molecular target: T1, hMAO-B (Homo sapiens, UniProt P27338); assay: in vitro fluorometric hMAO-B inhibition assay (Amplex Red); assay type: biochemical; conditions: for inhibition at 1000 µM: 10^−3 M; for inhibition at 1000 µM / inhibition at 100 µM: read-out: MAO B Inhibition %; for inhibition against hMAO-B (first screening step): 10^−3 and 10^−4 M; for inhibition at 100 µM: 10^−4 M; for IC50: concentrations of 10^−5–10^−9 M, mean ± SD, read-out: MAO B IC50
T1 sequence (P27338 1-520): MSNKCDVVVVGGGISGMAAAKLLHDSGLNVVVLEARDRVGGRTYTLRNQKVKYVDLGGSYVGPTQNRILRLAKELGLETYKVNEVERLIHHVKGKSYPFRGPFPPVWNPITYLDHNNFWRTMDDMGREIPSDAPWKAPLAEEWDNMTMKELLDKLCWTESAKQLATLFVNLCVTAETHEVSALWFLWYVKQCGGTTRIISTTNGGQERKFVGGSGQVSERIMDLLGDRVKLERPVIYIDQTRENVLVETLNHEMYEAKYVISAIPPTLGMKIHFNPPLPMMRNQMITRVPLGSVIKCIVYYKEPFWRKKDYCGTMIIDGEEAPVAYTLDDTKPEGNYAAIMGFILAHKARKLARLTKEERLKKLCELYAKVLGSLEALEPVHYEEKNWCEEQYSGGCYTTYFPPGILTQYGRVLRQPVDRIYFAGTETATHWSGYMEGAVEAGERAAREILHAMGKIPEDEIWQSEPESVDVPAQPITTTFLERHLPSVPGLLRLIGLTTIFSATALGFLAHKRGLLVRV
Procedure: The method was performed in two steps, as previously described.
An enzyme inhibition assay was performed according to our recent study. […] After the incubation period, the reaction was started by adding a working solution (100 μL/well) ([…] Amplex Red reagent, 1 U/mL horseradish peroxidase and 1 mM p-tyramine) and all pipetting processes were performed using a Biotek Precision XS robotic system (BioTek Instruments, Winooski, VT, USA).
(§1) Control experiments were carried out simultaneously by replacing the inhibitor solution with 2% DMSO (20 μL). In order to check the probable inhibitory effect of inhibitors on horseradish peroxidase, a parallel reading was achieved by replacing enzyme solutions with 3% H2O2 solution (20 mM 100 μL/well). In addition, the probable capacity of the inhibitors to modify the fluorescence generated in the reaction mixture due to non-enzymatic inhibition was determined by mixing inhibitor and working solutions.
(§2) The specific fluorescence emission (used to obtain the final results) was calculated after subtraction of the background activity, which was determined from vials containing all components except the hMAO isoforms, which were replaced by phosphate buffer (100 μL/well). Blank, control and all concentrations of inhibitors were analyzed in quadruplicate and inhibition percent was calculated by using following equation: % Inhibition=(FCt2−FCt1)−(FIt2−FIt1)/FCt2−FCt1×100 where FCt2 is the fluorescence of a control well measured at t2 time; FCt1 is the fluorescence of a control well measured at t1 time; FIt2 is the fluorescence of an inhibitor well measured at t2 time; and FIt1 is the fluorescence of an inhibitor well measured at t1 time.
(§3) The IC50 values were calculated from a dose-response curve obtained by plotting the percentage inhibition versus the log concentration with the use of GraphPad PRISM software (version 5.0, GraphPad Software Inc., La Jolla, CA, USA).

[2] = molecular target: T2, hMAO-A (Homo sapiens, UniProt P21397); assay: in vitro fluorometric hMAO-A inhibition assay (Amplex Red); assay type: biochemical; conditions: read-out: MAO A Inhibition %; for inhibition at 1000 µM: 10^−3 M; for inhibition at 100 µM: 10^−4 M
T2 sequence (P21397 1-527): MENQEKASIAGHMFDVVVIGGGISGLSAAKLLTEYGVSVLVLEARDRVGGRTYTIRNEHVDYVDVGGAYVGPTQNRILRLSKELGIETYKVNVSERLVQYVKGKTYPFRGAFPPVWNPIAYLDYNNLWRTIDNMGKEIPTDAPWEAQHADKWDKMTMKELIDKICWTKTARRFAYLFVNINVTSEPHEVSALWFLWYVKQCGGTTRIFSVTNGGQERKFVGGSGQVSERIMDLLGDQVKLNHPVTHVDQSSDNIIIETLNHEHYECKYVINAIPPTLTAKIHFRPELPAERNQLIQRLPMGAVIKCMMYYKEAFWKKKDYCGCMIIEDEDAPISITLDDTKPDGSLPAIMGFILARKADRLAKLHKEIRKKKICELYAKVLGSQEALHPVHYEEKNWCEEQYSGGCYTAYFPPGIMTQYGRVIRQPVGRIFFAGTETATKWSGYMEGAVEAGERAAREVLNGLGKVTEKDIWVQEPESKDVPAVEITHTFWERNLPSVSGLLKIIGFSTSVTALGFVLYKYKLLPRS
Procedure: The in vitro fluorometric enzymatic assay, allowing to sensitively detect monoamine oxidase activity, was applied to investigate hMAO-A and hMAO-B inhibitory potential of compounds 3a–3j. The method was performed in two steps, as previously described. […]
An enzyme inhibition assay was performed according to our recent study. The inhibitor (20 μL/well) and hMAO-A (100 μL/well) or hMAO-B solution (100 μL/well) was added to the fine black-bottom 96-well microtiter plate and the mixture was incubated at 37 °C for 30 min. After the incubation period, the reaction was started by adding a working solution (100 μL/well) ([…] Amplex Red reagent, 1 U/mL horseradish peroxidase and 1 mM p-tyramine) and all pipetting processes were performed using a Biotek Precision XS robotic system (BioTek Instruments, Winooski, VT, USA).
as §1, with “The production of H2O2 and, subsequently, of resorufin was quantified at 37 °C in a BioTek-Synergy H1 microplate reader based on the fluorescence generated (excitation, 535 nm, emission, 587 nm) over a 15 min period, in which the fluorescence increased linearly. Control” for “Control”
as §2, §3

Row | SMILES | inhibition at 1000 µM [1] [%] | inhibition against hMAO-B (first screening step) [1] | inhibition at 100 µM [1] [%] | IC50 [1] [nM] | inhibition at 1000 µM [2] [%] | inhibition at 100 µM [2] [%] | melting point [°C]
1 | COc1ccc2sc(SCC(=O)NN=Cc3sccc3C)nc2c1 [Compound 3b, 2-((5-Methoxybenzo[d]thiazol-2-yl)thio)-N′-((3-methylthiophen-2-yl)methylene)acetohydrazide] | 30.5 |  | 26.9 |  | 30.1 | 20.4 | 162.9 to 164.4
2 | COc1ccc2sc(SCC(=O)NN=Cc3ccncc3)nc2c1 [Compound 3j, 2-((5-Methoxybenzothiazol-2-yl)thio)-N′-(pyridin-4-ylmethylene)acetohydrazide] | 34.6 |  | 30.5 |  | 22.1 | 17.3 | 159.8 to 161.4
3 | COc1ccc2sc(SCC(=O)NN=Cc3ccc(Br)s3)nc2c1 [Compound 3d, N′-((5-Bromothiophen-2-yl)methylene)-2-((5-methoxybenzothiazol-2-yl)thio)acetohydrazide] | 24 |  | 17.8 |  | 18.9 | 12.7 | 188.3 to 190.4
4 | COc1ccc2sc(SCC(=O)NN=Cc3cccnc3)nc2c1 [Compound 3i, 2-((5-Methoxybenzothiazol-2-yl)thio)-N′-(pyridin-3-ylmethylene)acetohydrazide] | 32 |  | 28.8 |  | 19.9 | 10.6 | 177.5 to 179.3
5 | COc1ccc2sc(SCC(=O)NN=Cc3cccs3)nc2c1 [Compound 3a, 2-((5-Methoxybenzothiazol-2-yl)thio)-N′-(thiophen-2-ylmethylene)acetohydrazide] | 60.4 | more than 50% | 52.1 | 15400 ± 398 | 25 | 19 | 163.7 to 165.3
6 | O=C(NCCN1CCOCC1)c1ccc(Cl)cc1 [Moclobemide, reference compound] |  |  |  |  | 91.4 ± 4.6 | 77.9 ± 3.71 | 

Other lines, results leading:

Row | inhibition at 1000 µM [1] [%] | inhibition against hMAO-B (first screening step) [1] | inhibition at 100 µM [1] [%] | IC50 [1] [nM] | inhibition at 1000 µM [2] [%] | inhibition at 100 µM [2] [%] | melting point [°C] | SMILES
7 | 75.7 | more than 50% | 68.3 | 963 ± 33 | 30.8 | 18.3 | 146.1 to 147.9 | COc1ccc2sc(SCC(=O)NN=Cc3ccco3)nc2c1 [Compound 3f, N′-(Furan-2-ylmethylene)-2-((5-methoxybenzothiazol-2-yl)thio)acetohydrazide]
8 | 82.6 | more than 50% | 79.1 | 75 ± 3 | 25.9 | 21.3 | 168.9 to 170.7 | COc1ccc2sc(SCC(=O)NN=Cc3ccc([N+](=O)[O-])o3)nc2c1 [Compound 3h, 2-((5-Methoxybenzothiazol-2-yl)thio)-N′-((5-nitrofuran-2-yl)methylene)acetohydrazide]
9 | 18.2 |  | 11.2 |  | 16.7 | 11.1 | 145.3 to 146.7 | COc1ccc2sc(SCC(=O)NN=Cc3ccc(C)o3)nc2c1 [Compound 3g, 2-((5-Methoxybenzothiazol-2-yl)thio)-N′-((5-methylfuran-2-yl)methylene)acetohydrazide]
10 | 25.8 |  | 18.2 |  | 14.1 | 10.8 | 149.6 to 152.3 | COc1ccc2sc(SCC(=O)NN=Cc3ccc(C)s3)nc2c1 [Compound 3c, 2-((5-Methoxybenzothiazol-2-yl)thio)-N′-((5-methylthiophen-2-yl)methylene)acetohydrazide]
